Here are results for two compounds from patent US10604476B2, “Fluorinated amide derivatives and their uses as therapeutic agents” (Trillium Therapeutics Inc., priority 2015, dated 2020).

A value given as a limit tells only on which side of the number the result lay.

Data set [1] concerns Metrazol seizure threshold. The data set can be described thus: Timed intravenous infusion of Metrazol (iv Met) in mouse. As to conditions: FIG. 1, p<0.001. In kind it is in vivo. As to the method:
The iv-Met test provides a measure of a test substance's ability to raise or lower seizure threshold. Two doses of the test compound are usually employed in this test, the MES ED50 and the TD50 determined following ip quantification testing in mice. Randomly selected mice are injected intraperitoneally 2 minutes apart with either the vehicle or the two test drug doses, maintaining the same order of dosing until 30 mice have been injected. At the previously determined TPE, 0.5% heparinized Metrazol solution is infused at a constant rate of 0.34 ml/min into a lateral tail vein of an unrestrained mouse. Infusion is by means of a Sage syringe pump (model 341 A) and a 10 ml B-D plastic syringe connected to a length of No 20 P.E. tubing. A 27 gauge stainless steel needle with the hub removed is connected to the tubing and inserted into a vein, bevel side up and secured to the tail by a narrow piece of adhesive tape. For the placement of the needle, the mouse is restrained in a cone shaped device with only the tail exposed. […] The time in seconds from the start of the infusion to the appearance of the “first twitch” and the onset of sustained clonus is recorded. The times to each endpoint are converted to mg/kg of Metrazol for each mouse as follows: The mean and standard error for each of the 3 groups and the significance of the difference between the test groups and the control are calculated.

For another data set, the system named is gross motor function. As to the kind of experiment: Fixed speed rotorod, rat (gross motor function). As to conditions: Sprague-Dawley, in vivo, po. The protocol:
On the test day following a defined drug pretreatment period, rats received a maximal electroshock (150 mA, 0.2 s duration, 60 Hz) via corneal electrodes. Protection was defined as absence of a full tonic seizure within 10 s of stimulus delivery. Twenty minutes before the MES procedure, the animals were tested on a fixed speed rotorod (best score from 3 trials at 8 r.p.m, trial duration=60 s) to give an early assessment of drug effect on gross motor function.
For orientation: Falling from the rotarod earlier than controls is read as motor impairment.

Data set [2] relates to lithium pilocarpine-induced status epilepticus. As to the kind of experiment: Pilocarpine-induced status epilepticus rat model. In kind it is in vivo. The protocol: While most seizures are often short duration events that resolve spontaneously, status epilepticus (SE) events are characterized by continuous epileptic seizures or a series of seizures lasting longer than 30 minutes. Typically, treatment of SE requires emergency room intervention with either diazepam or lorazepam, immediately followed by phenytoin or phenobarbital. However, up to 15% of SE episodes can be refractory to these conventional therapies, thus identifying novel treatments that can be applied in the drug-refractory period, i.e. benzodiazepine-resistant SE, is of critical value to the clinical management of SE. The lithium-pilocarpine model is used to study the effects of a test compound on benzodiazepine-resistant SE. Sprague Dawley rats (n=8 per group; 100-150 g) are injected with lithium chloride (LiCl) solution (127 mg/kg). Animals are then used for the lithium pilocarpine-induced SE test 20-24 hours following LiCl injection. On the day of the test, animals are weighed and then injected with pilocarpine (50 mg/kg; i.p.) before being placed in an observation cage. In the initial convulsive-SE behavioral observation studies, adult rats receive a dose of the investigational compound, which was found in rat MES quantification to produce MMI. […] The ED50 and ED97 in this behavioral assay (30 minute time point) are determined for promising investigational compounds.

For data set [3], the system named is formalin-induced paw licking. The data set can be described thus: Mouse formalin test. In kind it is in vivo. The conditions noted are these: 41 mg/kg i.p.; most pronounced in second (late) phase. As to the method: The formalin test is performed according to the method of Tjolsen et al. Pain, 1992. 51(1). An injection of 0.5% formalin (Sigma) is made into the planter region of the right hind paw of an adult (26-30 g) male CF-1 mouse. Sub-dermal formalin injection elicits a distinct behavioral profile characterized by the mouse licking the affected paw. The behavior is characteristically biphasic in nature. For example, immediately following the injection the mouse licks the paw intensely for approximately 10 min. This is referred to as phase 1 (or, the acute phase) and is followed by a brief latent period (<5 minutes) where there is little behavioral activity. A more prolonged period of about 20-30 min of activity then ensues, which constitutes phase 2 (or, the inflammatory phase). […] The area under the curve (AUG) is calculated for both the acute and inflammatory phases of the licking response for individual animals in both the test and control groups. The percent of control AUG for drug-treated animal groups is determined using the Graph-Pad Prism Version 3.03. The total AUG for each phase of the test group is also calculated and converted to percentage of total AUG of control for each phase. The average and S.E.M. for both the drug treated and control percentages are calculated and tested for significant difference.

In the case of `C[C@@H](Oc1cc(Cl)cc(C(F)(F)F)c1)C(N)=O` [I(D), (2R)-2-[3-chloro-5-(trifluoromethyl)-phenoxy]propanamide], the “seizure threshold (time to twitch, time to clonus, total dose of pentylenetetrazol to first twitch or clonus)” value in data set [1] is “elevate seizure threshold”. Also, the ED50 – broadly, the dose at which the effect has come halfway, by size or by number of responders – at 0.5 hour in the data set on gross motor function is > 500 mg/kg. Besides, the “effect in chemically induced SE, administered 30 minutes after the appearance of seizures” value in data set [2] (130 mg/kg) is recorded as “effective”. In addition, the “effect in chemically induced SE, administered at the time of the chemical insult” value in data set [2] (time zero, 65 mg/kg) is “effective”.

Take `NC(=O)COc1cc(C(F)(F)F)cc(C(F)(F)F)c1` [I(F), 2-[3,5 bis(trifluoromethyl)-phenoxy]acetamide;]: in data set [3], the “number of paw licks” value is “significant decrease”. Moreover, the ED50 at 0.5 hour in the data set on gross motor function was > 500 mg/kg.
